Source: ChEMBL document CHEMBL4834424, “Targeting Chikungunya Virus Replication by Benzoannulene Inhibitors” (J Med Chem, 2021)
pEC50, pIC50: −log10 of the molar value. In brackets after ≈: the same amount, converted by molar mass.

Key:
[1] = tested on: Chikungunya virus; assay: (§1) Antiviral activity against CHIKV infected in human NHDF cells assessed as reduction in virus titer in cell supernatant by measuring inhibition of plaque formation using Vero cells at 10 uM pretreated with NHDF cells followed by infected with virus incubated for 24 hrs and measured following infection of supernatants with Vero cells for 48 hrs by plaque based methylene blue dye analysis; type: functional; details: time 72 hrs
[2] = (§2) Cytotoxicity against human NHDF cells assessed as cell viability measured after 24 hrs by Cell Titer Glo luminescent assay; type: cell-based; details: NHDF cells
[3] = tested on: Chikungunya virus; assay: as §1, with “cells” for “cells at 10 uM”; type: functional, organism-based
[4] = target: Dihydroorotate dehydrogenase (quinone), mitochondrial (Homo sapiens, UniProt Q02127)
Dihydroorotate dehydrogenase (quinone), mitochondrial, sequence (Q02127 whole entry): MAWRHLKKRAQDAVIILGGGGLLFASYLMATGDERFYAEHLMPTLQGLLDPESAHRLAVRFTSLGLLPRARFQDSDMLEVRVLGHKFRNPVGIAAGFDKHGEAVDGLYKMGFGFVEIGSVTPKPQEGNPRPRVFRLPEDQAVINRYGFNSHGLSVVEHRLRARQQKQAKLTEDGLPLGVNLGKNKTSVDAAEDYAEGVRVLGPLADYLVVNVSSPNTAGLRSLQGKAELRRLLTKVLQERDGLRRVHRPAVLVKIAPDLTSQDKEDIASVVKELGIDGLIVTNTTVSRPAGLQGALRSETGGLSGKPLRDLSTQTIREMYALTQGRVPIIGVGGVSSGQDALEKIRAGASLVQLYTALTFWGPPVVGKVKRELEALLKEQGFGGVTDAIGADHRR

[5] = Aqueous solubility of the compound; type: physicochemical
[6] = Octanol-aqueous buffer distribution coefficient, log D of the compound by LC-MS analysis; type: physicochemical
[7] = Metabolic stability in human liver microsomes assessed as half life in presence of NADPH incubated up to 45 mins by LC-MS/MS analysis; type: ADME, Microsome
[8] = tested on: Chikungunya virus; type: functional; details: 181-25, C6, time 48 hrs
[9] = tested on: Venezuelan equine encephalitis virus; assay: Antiviral activity against Venezuelan equine encephalitis virus TC83 infected in Asian tiger mosquito C6/36 cells assessed as reduction in virus titer in cell supernatant by measuring inhibition of plaque formation using Vero cells and measured following infection of supernatants with Vero cells for 48 hrs pi by serial dilution plaque based methylene blue dye analysis; type: functional
[10] = tested on: West Nile virus; assay: (§3) Antiviral activity against West nile virus infected in HEK293 cells assessed as reduction in virus titer in cell supernatant by measuring inhibition of plaque formation using Vero cells at 10 uM measured following infection of supernatants with Vero cells for 48 hrs pi by serial dilution plaque based methylene blue dye analysis; type: functional
[11] = tested on: dengue virus type 2; assay: as §3, with “DENV2” for “West nile virus”; type: functional
[12] = tested on: NHDF; assay: as §2; type: cell-based; details: nhdf, 24 h
[13] = Metabolic stability in mouse liver microsomes assessed as half life in presence of NADPH incubated up to 45 mins by LC-MS/MS analysis; type: ADME, Microsome; design: unit not given here; details: for half-life: liver microsomes; for t1/2: microsomes, 0.75 h

SMILES	log(activity) [1]	CC50 at 24 h [2] [µM]	pEC50 [3]	solubility ([5]; aqueous, read-out: solubility) [µM]	logD [6]	half-life [7] [h]	half-life [13]	other results
CC(C)(C)c1ccc(C(=O)Nc2cc3c(cc2[N+](=O)[O-])CCCCC3)cc1	0	> 30	–	–	–	–	–	–
COc1cc2c(cc1NC(=O)c1ccc(C(C)(C)C)cc1)CCCC(=O)N2C(C)C	1.7	> 30	5.29	–	–	–	–	–
COc1cc2c(cc1C(=O)Nc1ccc(C(C)(C)O)cc1)CCCCC2	1.6	> 30	5.10	–	–	–	–	pIC50 [4]: 4.62
COc1cc2c(nc1NC(=O)c1ccc(C(C)(C)C)cc1)CCCC2	1.3	> 30	–	–	–	–	–	–
COc1cc2c(cc1NC(=O)c1ccc(C(C)(C)C)cc1)CCCC(=O)N2	<1	> 30	–	–	–	–	–	–
CCOc1cc2c(cc1NC(=O)c1ccc(C(C)(C)C)cc1)CCC2	1	> 30	5.21	–	–	–	–	–
COc1cc2c(cc1NC(=O)c1ccc(C3(O)CCC3)cc1)CCCCC2	<1	> 30	–	–	–	–	–	–
COc1cc2c(cc1C(=O)Nc1ccc(C(C)(C)C)cc1)CCCCC2	3.2	> 30	6.32	0.5 (≈ 0.176 µg/mL)	4	99	–	EC90 [8]: 1.6 µM; EC90 [9]: 2.9 µM; log(activity) [10]: 1.7; log(activity) [11]: 1.9; pIC50 [4]: 5.52
CC(C)(C)c1ccc(C(=O)Nc2cc3c(cc2OCc2ccccn2)CCC3)cc1	1.2	> 30	5.05	–	–	–	–	–
CC(C)(C)c1ccc(C(=O)Nc2cc3c(cc2C(F)(F)F)CCCCC3)cc1	0	> 30	–	–	–	–	–	–
[2H]C([2H])([2H])Oc1cc2c(cc1NC(=O)c1ccc(C(C)(C)C)cc1)CCCCC2	23	> 30	6.00	28 (≈ 9.93 µg/mL)	3	31	–	–
CCOc1cc2c(cc1NC(=O)c1ccc(C(C)(C)C)cc1)CCCC2	1	–	5.11	–	–	–	–	CC50 [12]: 3.86 µM
COc1nc2c(cc1C(=O)Nc1ncc(C(C)(C)C)cn1)CCCCC2	1.95	> 30	5.05	–	3	67	1620	solubility ([5]; buffer): 64 µM (≈ 22.7 µg/mL)
CC(C)(C)c1ccc(C(=O)Nc2cc3c(cc2OCc2ccccn2)CCCCC3)cc1	<1	–	–	–	–	–	–	CC50 [12]: 9.4 µM
COCCOc1cc2c(cc1NC(=O)c1ccc(C(C)(C)C)cc1)CCCCC2	0	> 30	–	–	–	–	–	–
COc1cc2c(cc1NC(=O)c1ccc(C(C)(C)C(F)(F)F)cc1)CCCCC2	1.8	> 30	5.46	< 1	6	106	2100	–
COc1nc2c(cc1NC(=O)c1ccc(C(C)(C)C)cc1)CCCC2	6.7	> 30	5.64	–	–	–	–	–
COc1cc2c(cc1NC(=O)c1ccc(C(C)(C)CO)cc1)CCCCC2	3.1	> 30	5.15	–	–	–	–	–
COc1cc2c(cc1C(=O)Nc1cc(C(C)(C)C)[nH]n1)CCCCC2	–	–	–	–	–	–	–	pIC50 [4]: < 4.52
CC(C)(C)c1ccc(C(=O)Nc2cc3c(cc2O)CCCCC3)cc1	3.5	> 30	6.40	–	5	74	1860	solubility ([5]; buffer): 1 µM (≈ 0.337 µg/mL); pIC50 [4]: < 4.52
CC(=O)Oc1cc2c(cc1NC(=O)c1ccc(C(C)(C)C)cc1)CCCCC2	52	> 30	5.55	< 1	5	7	–	–
CCOc1cc2c(cc1C(=O)Nc1ccc(C(C)(C)C)cc1)CCCCC2	1.5	> 30	5.42	–	–	–	–	–
COc1cc2c(cc1NC(=O)c1ccc(C(C)(C)C)cc1)CCCCN2	3.9	> 30	5.48	–	–	–	–	–
COc1cc2c(cc1NC(=O)c1ccc(C(C)(C)C)cc1)CCC2	<1	> 30	–	–	–	–	–	–
CC(C)(C)c1ccc(C(=O)Nc2ccc3c(c2)CCCCC3)cc1	3.9	> 30	6.15	–	4	33	1380	solubility ([5]; buffer): 35 µM (≈ 11.3 µg/mL)

SMILES	log(activity) [1]	CC50 at 24 h [2] [µM]	pEC50 [3]	solubility ([5]; aqueous, read-out: solubility) [µM]	logD [6]	half-life [7] [h]	half-life [13]	other results
CC(C)(C)c1ccc(C(=O)Nc2cc3c(cc2N)CCCCC3)cc1	0	> 30	–	–	–	–	–	–
COc1cc2c(cc1C(=O)Nc1ccc(-c3cc[nH]n3)cc1)CCCCC2	5.9	> 30	5.47	–	–	–	–	–
COc1cc2c(nc1NC(=O)c1ccc(C(C)(C)C)cn1)CCCCC2	4.05	> 30	5.54	–	–	–	–	pIC50 [4]: < 4.52
Cc1cc2c(cc1NC(=O)c1ccc(C(C)(C)C)cc1)CCCCC2	3.5	> 30	5.62	< 1	4	63	660	–
CC(C)(C)c1ccc(C(=O)Nc2cc3c(cc2OC(F)(F)F)CCCCC3)cc1	–	> 30	5.43	–	5	–	–	solubility ([5]; buffer): 8 µM (≈ 3.24 µg/mL); t1/2 [13]: 127
COc1cc2c(cc1C(=O)Nc1ccc(C(C)(C)C)cn1)CCCCC2	–	–	–	–	–	–	–	pIC50 [4]: < 4.52
CC(C)(C)c1ccc(C(=O)Nc2cc3c(cc2C#N)CCCCC3)cc1	1.8	> 30	5.36	< 1	5	76	1860	–
COc1cc2c(cc1NC(=O)c1ccc(C(O)(C(F)(F)F)C(F)(F)F)cc1)CCCCC2	3.1	> 30	5.55	< 1	5	70	660	–
CCOc1cc2c(cc1NC(=O)c1ccc(C(C)(C)C)cc1)CCCCC2	2.2	> 30	5.28	–	–	–	–	–
CCc1cc2c(cc1C(=O)Nc1ccc(C(C)(C)C)cc1)CCCCC2	0.2	> 30	–	–	–	–	–	–
COc1nc2c(cc1C(=O)Nc1ccc(C(C)(C)C)cc1)CCCCC2	1.3	> 30	–	1.8 (≈ 0.634 µg/mL)	4.6	102	2700	–
COc1cc2c(cc1NC(=O)c1ccc(C(C)(C)C#N)cc1)CCCCC2	1.7	> 30	5.80	35 (≈ 12.7 µg/mL)	4	51	720	–
CC(C)(C)c1ccc(C(=O)Nc2cc3c(cc2CO)CCCCC3)cc1	<1	> 30	–	< 1	4	64	1320	–
CC(C)(C)c1ccc(NC(=O)c2cc3c(cc2O)CCCCC3)cc1	3.3	> 30	5.81	< 1	4.2	49	4680	pIC50 [4]: < 4.52
CCc1cc2c(cc1NC(=O)c1ccc(C(C)(C)C)cc1)CCCCC2	4.9	> 30	5.77	< 1	5	37	660	pIC50 [4]: < 4.52
COc1cc2c(cc1NC(=O)c1ccc(C3(C(F)(F)F)CC3)cc1)CCCCC2	1	> 30	5.89	< 1	6	67	1320	–
COc1cc2c(cc1NC(=O)c1ccc(C(C)(C)O)cc1)CCCCC2	1.6	> 30	5.61	8 (≈ 2.83 µg/mL)	4	254	1140	–
COc1nc2c(cc1C(=O)Nc1ccc(C(C)(C)C)cn1)CCCCC2	0.27	> 30	–	< 1	> 4.7	88	3960	–
CC(C)(C)c1ccc(NC(=O)c2cc3c(cc2OC(F)F)CCCCC3)cc1	1.4	> 30	–	–	5	70	660	–
CCCOc1cc2c(cc1NC(=O)c1ccc(C(C)(C)C)cc1)CCCCC2	1	> 30	5.15	–	–	–	–	–
COc1cc2c(nc1NC(=O)c1ccc(C(C)(C)C)cc1)CCCCC2	3.18	> 30	6.23	–	–	–	–	–
CC(C)(C)c1ccc(C(=O)Nc2cc3c(cc2F)CCCCC3)cc1	4.9	> 30	6.10	33 (≈ 11.2 µg/mL)	4	28	–	t1/2 [13]: 4
COc1cc2c(cc1NC(=O)c1ccc(C(C)(C)C)cc1)CCCCN2C	<1	> 30	–	–	–	–	–	–
CC(C)(C)c1ccc(C(=O)Nc2cc3c(cc2OCc2ccccn2)CCCC3)cc1	1.1	> 30	5.04	–	–	–	–	–
